# In EP0880540B1, “17-BETA-CYCLOPROPYL(AMINO/OXY) 4-AZA STEROIDS AS ACTIVE INHIBITORS OF TESTOSTERONE 5-ALPHA-REDUCTASE AND C17-20-LYASE” (Aventis Pharmaceuticals Inc., priority 1996, dated 1997):
# Assays:
# [1] = target: T1, cynomolgus monkey C17,20 lyase (Macaca fascicularis, UniProt Q2XVA1); assay: In vitro C17,20 lyase assay, testicular microsomes; type: biochemical; conditions: mean of duplicates
# T1 construct: microsomal preparations of the enzyme from testicular tissue; from tissue; host or cells: cynomolgus monkey testes, microsomes
# T1 sequence (Q2XVA1 1-508): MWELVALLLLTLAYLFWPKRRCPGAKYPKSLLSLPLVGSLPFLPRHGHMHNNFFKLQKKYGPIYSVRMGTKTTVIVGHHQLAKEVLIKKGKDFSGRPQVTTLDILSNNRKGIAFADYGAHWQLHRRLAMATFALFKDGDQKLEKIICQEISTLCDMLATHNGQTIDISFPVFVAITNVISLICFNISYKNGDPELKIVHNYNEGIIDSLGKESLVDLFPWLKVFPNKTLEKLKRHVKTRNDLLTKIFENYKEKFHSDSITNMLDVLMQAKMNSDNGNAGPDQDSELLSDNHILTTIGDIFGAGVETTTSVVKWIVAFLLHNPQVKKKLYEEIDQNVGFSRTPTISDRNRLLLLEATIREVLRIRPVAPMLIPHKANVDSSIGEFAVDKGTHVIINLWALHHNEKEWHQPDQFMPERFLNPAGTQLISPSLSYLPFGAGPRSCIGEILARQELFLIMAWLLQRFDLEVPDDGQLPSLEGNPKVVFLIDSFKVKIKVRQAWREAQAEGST
# Procedure: In vitro C17,20 lyase assays: Compounds were tested for inhibition of cynomolgus monkey C17,20 lyase in vitro using microsomal preparations of the enzyme from testicular tissue. Testes were removed from anesthetized animals and flash frozen in liquid nitrogen. Microsomes were isolated as described in Schatzman et al., Anal. Biochem. 175, 219-226 (1988). The compound to be tested was dissolved in dimethyl sulfoxide and diluted in 0.05 M potassium phosphate buffer, pH 7.4, to give the desired concentrations of test compound, in an amount which contributed 0.1% v/v DMSO to the total assay volume. Assays contained 0.05 M potassium phosphate buffer, pH 7.4, an NADPH regenerating system (1 mM NADPH, 5 mM glucose-6-phosphate, 1 IU/mL glucose-6-phosphate dehydrogenase), test compound, substrate and microsomal protein in a total volume of 0.2 mL. Control assays contained all components, including dimethyl sulfoxide, but not test ccmpound. All assays were performed in duplicate. The test compound was incubated with 20 to 62 µg/mL microsomal protein, buffer, and the NADPH regenerating system described above at 34°C for 0 or 40 minutes. Aliquots of 180 µL were then removed and assayed for enzyme activity by addition to 7-[^3H]-17α-hydroxypregnenolone (11.2 mCi/mmole; 0.2 µCi per assay) plus unlabeled 17α-hydroxypregnenolone dissolved in DMSO, contributing 2.5% v/v to the final assay mix, and phosphate buffer to give a total substrate concentration of 0.05 µM (=Km) per assay and subsequent incubation at 34°C for 6 minutes. Each assay was terminated by addition of 5 mL of chloroform:methanol (2:1). Carrier steroids representing substrates and produces (17α-hydroxypregnenolone, dehydroepiandrosterone, and androst-5-ene-3β,17β-diol) and 0.8 mL of distilled, deionized water were also added at this time. The steroids were extracted by the method of Moore and Wilson (Methods in Enzymol., eds. O. Malley, B.W. and Hardman, J.G. 36, 1975, pp. 466-474). The organic phase containing the steroids was evaporated using nitrogen gas, the residues dissolved in 18% tetrahydrofuran (v/v) in hexane, and the steroids were separated by HPLC on a Si60 (5 µm) column (250 x 4 mm) using a gradient of 18-22% tetrahydrofuran (v/v) in hexane. Radioactivity in the steroid peaks was measured using a Radiomatic® Model ES or Model A515 Flo-One® detector.
# The enzyme activity for each assay was calculated from the percent conversion of substrate to products, and the results were expressed as percent inhibition of control. The following results were obtained, wherein the values indicated are the mean of duplicate determinations: Table 1: […]
# [2] = target: T2, cynomolgus monkey prostatic 5α-reductase (Macaca fascicularis, UniProt Q28892); assay: In vitro 5α-reductase assay, prostate microsomes; type: biochemical; conditions: mean of duplicates
# T2 construct: microsomal preparations of the 5α-reductase enzyme from laboratory animal prostate tissue; from tissue; host or cells: cynomolgus monkey prostate, microsomes
# T2 sequence (Q28892 1-254): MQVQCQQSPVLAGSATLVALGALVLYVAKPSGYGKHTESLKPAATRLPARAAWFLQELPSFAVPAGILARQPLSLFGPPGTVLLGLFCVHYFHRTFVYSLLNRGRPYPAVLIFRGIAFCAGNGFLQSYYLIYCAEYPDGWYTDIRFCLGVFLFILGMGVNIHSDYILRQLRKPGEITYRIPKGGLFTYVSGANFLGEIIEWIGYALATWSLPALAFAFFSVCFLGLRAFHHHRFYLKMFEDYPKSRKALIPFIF
# Procedure: In vitro 5α-reductase assays: The activity of the present compounds as inhibitors of steroid 5α-reductase was determined using microsomal preparations of the 5α-reductase enzyme from laboratory animal prostate tissue. Specifically, microsomes were isolated from cynomolgus monkey prostate tissue. Protein concentration of the microsomal preparations was determined prior to use of the samples. Individual assays of cynomolgus monkey prostatic 5α-reductase activity contained 0.1 M potassium phosphate-sodium citrate buffer, pH 5.6 1.0% (w/v) bovine serum albumin, […] sodium EDTA, 4 µg of microsomal protein, 1.0 mM NADPH, 5.0 mM glucose-6-phosphate, 1 IU/mL glucose-6-phosphate dehydrogenase, [1,2-^3H]-testosterone (0.15 µCi) plus unlabeled testosterone to yield 0.015 µM (Km = 0.015 µM to 0.091 µM in multiple determinations), and test compound which was dissolved in DMSO then diluted in 0.1 M potassium phosphate-sodium citrate buffer, pH 5.6, to yield a final assay concentration of 0.1% (v/v) DMSO. The same buffer and DMSO without test compound were used in control assays. Background radioactivity was determined from assays containing all components except enzyme. Assays were performed in duplicate. Microsomes, 0.1 M potassium phosphate-sodium citrate buffer, pH 5.6, and test compound were preincubated at 37°C. Aliquots of 180 µL were removed after 0 or 40 minutes of preincubation and added to […] of testosterone substrate suspended in 0.1 M potassium phosphate-sodium citrate buffer, pH 5.6, containing 10% (v/v) DMSO. Remaining enzyme activity was assayed for 10 minutes at 37°C in a Dubnoff shaker incubator.
# The reactions were terminated by the addition of 5 mL CHCl3:methanol (2:1) and 0.9 mL water. Carrier steroids were added in the form of 2.5 µg each of testosterone, dihydrotestosterone, and 3,17-androstanediol. Steroid metabolites were then extracted according to the procedure of Moore and Wilson (Methods in Enzymol., O'Malley, B.W. and Hardman, J.G. eds., 36, 1975, pp. 466-474), the organic phase containing the steroids was evaporated using nitrogen gas, the residues were dissolved in 3% (v/v) isopropanol in hexane. The steroids were then separated by normal phase HPLC on a LiCrosorb® DIOL derivatized silica gel column (10 µm; 4 x 250 mm) with a 3% to 7.5% isopropanol in hexane gradient, followed by isocratic conditions of […] isopropanol in hexane. Radioactivity in the steroid peaks was measured using a Packard Radiomatic model HS Flo-One detector. When the compound were tested using the above procedures with cynomolgus monkey 5α-reductase, the following results were obtained: Table 2: […]
smiles,measurement,setting,value
"C[C@]12CC[C@H]3[C@@H](CC=C4NC(=O)CC[C@@]43C)[C@@H]1CC[C@@H]2OC1CC1 (stereo in doubt) [MDL 103,496, 17β-Cyclopropyloxy-4-aza-androst-5-en-3-one]",inhibition at 0.1 µM,[1]; preincubation 0 min,5%
same,inhibition at 0.1 µM,[1]; preincubation 40 min,26.6%
same,inhibition at 1 µM,[1]; preincubation 0 min,29%
same,inhibition at 1 µM,[1]; preincubation 40 min,62.2%
same,inhibition at 10 µM,[1]; preincubation 0 min,39.2%
same,inhibition at 10 µM,[1]; preincubation 40 min,87.7%
same,inhibition at 0.1 µM,[2]; preincubation 0 min,24.6%
same,inhibition at 0.1 µM,[2]; preincubation 40 min,29.5%
same,inhibition at 1 µM,[2]; preincubation 0 min,86.2%
same,inhibition at 1 µM,[2]; preincubation 40 min,86.7%
same,inhibition at 10 µM,[2]; preincubation 0 min,99.6%
same,inhibition at 10 µM,[2]; preincubation 40 min,99.4%
